From patent publication US7410980B2, “Crystals of taxane derivative and process for their production” (Daiichi Pharmaceutical Co., Ltd., priority 2001, dated 2008)

Assay: moisture absorption behavior (microbalance, automatic moisture adsorption apparatus)
Format: physicochemical
Experimental: Moisture absorption behaviors of the crystals of the present invention (β crystals) and an amorphous substance were measured under relative humidity of from 30 to 90%. Each sample of about 20 mg was used and the relative humidity was changed from 30% with 10% pitch by using a microbalance (automatic moisture adsorption apparatus). The measurement temperature was 25° C. An amount of the change was determined when the sample gave the change of 0.03% or less for 30 minutes (maximum retention time: 180 minutes).

SMILES | additional moisture absorbed as compared to the crystals of the present invention (β crystals) (under high humidity, relative humidity 30 to 90%, 25° C., about 20 mg sample) | hygroscopicity (compared with amorphous substance, as shown in the examples)
CC(=O)O[C@@]12CO[C@@H]1CC[C@@]1(C)[C@@H]3O[C@H](CN(C)C)O[C@@H]3C3=C(C)[C@@H](OC(=O)[C@H](O)[C@@H](NC(=O)OC(C)(C)C)c4ncccc4F)C[C@@](O)([C@@H](OC(=O)c4ccccc4)[C@@H]12)C3(C)C [amorphous substance, (1S,2S,3R,4S,5R,8R,9S,10R,13S)-4-acetoxy-2-benzoyloxy-9,10-[(1S)-2-(dimethylamino)ethylidenedioxy]-5,20-epoxy-1-hydroxytax-11-en-13-yl (2R,3S)-3-(tert-butoxycarbonylamino)-3-(3-fluoro-2-pyridyl)-2-hydroxypropionate] | about 1% | 
CC(=O)O[C@@]12CO[C@@H]1CC[C@@]1(C)[C@@H]3O[C@H](CN(C)C)O[C@@H]3C3=C(C)[C@@H](OC(=O)[C@H](O)[C@@H](NC(=O)OC(C)(C)C)c4ncccc4F)C[C@@](O)([C@@H](OC(=O)c4ccccc4)[C@@H]12)C3(C)C [β crystals, (1S,2S,3R,4S,5R,8R,9S,10R,13S)-4-acetoxy-2-benzoyloxy-9,10-[(1S)-2-(dimethylamino)ethylidenedioxy]-5,20-epoxy-1-hydroxytax-11-en-13-yl (2R,3S)-3-(tert-butoxycarbonylamino)-3-(3-fluoro-2-pyridyl)-2-hydroxypropionate] |  | lower than that of an amorphous substance
